In one experiment the test system is M82 seeds. Description: Seed germination assay on ABA-supplemented medium. Type of experiment: in vivo, Tomato (S. lycopersicum). To be noted: 5 μM ABA, seven days. The procedure:
Seeds of M82 and rop9 mutant plants (50 seeds per genotype) were surface sterilized for 2 min in ethanol followed by 20 min in 3% sodium hypochlorite, washed with excess of water (˜100 ml) and sown on 0.5×MS+1% agar plates (without sucrose) supplemented with 0.1% ethanol (mock) or 1 or 5 μM ABA (in 0.1% ethanol). Seeds were kept at 4° C. for 48 h for […] and moved to 25° C. in the dark for germination. The percentage of seeds germinated were determined after seven days.

Experiment [1] relates to ROS levels in guard cells. Nature of the experiment: ROS measurements in guard cells (H2DCF fluorescence). Type of experiment: cell-based, Tomato (S. lycopersicum). On the procedure:
Reactive oxygen species (ROS) levels in guard cells were monitored using a fluorescence-based assay with 2′,7′-dichlorofluorescien diacetate (H2DCF-DA). Abaxial epidermises of cotyledons were mounted on microscope slides with medical adhesive Telesis V and loaded with stomatal opening buffer with 50 μM H2DCF-DA for 30 min. Excess H2DCF-DA was removed by washing with water, and samples were loaded with 0.1% ethanol (mock) or 10 μM ABA in opening buffer. After 15 min, fluorescence images were collected using a Zeiss-LSM 780 NLO confocal microscope. Fluorescence measured from about thirty stomata of each biological replicate was determined using Image J.

The subject of experiment [2] is P5CS1 and RAB18 expression. Description: QPCR of ABA-responsive genes. Type of experiment: cell-based, Tomato (S. lycopersicum). Conditions: M82, rop9-1 and rop9-4 cotyledons, 50 μM ABA. On the procedure: For expression of ABA induced genes, total RNA was extracted from mock-treated or ABA-treated cotyledons or from 2- to 3-week-old soil-grown plants using the RNeasy Plant Mini Kit (Qiagen). cDNAs were prepared using the High-capacity cDNA Reverse Transcription Kit (Applied Biosystems). Oligonucleotide primers for tubulin, P5CS1, and RAB18 were identical to those used by Nir et al. (2017, ibid). Expression was normalized to tubulin. Gene expression of the M82 mock-treated samples was set to 1, and then remaining samples were calculated proportionately. Data are the means (±SE) of three independent biological replicates.

Experiment [3] has as its system M82 and rop9 mutant seedlings. Nature of the experiment: Primary root elongation assay. Type of experiment: in vivo, Tomato (S. lycopersicum). Conditions: 1 or 5 μM ABA, 48 h. On the procedure: Seven-day-old M82 and rop9 mutant seedlings were transferred to 0.5×MS+1% agar plates (without sucrose) supplemented with 0.1% ethanol (mock) or 1 or 5 μM ABA in 0.1% ethanol, and root lengths were marked. Root elongation was measured after 48 h.

Experiment [4] deals with stomata of M82 and rop9 mutant cotyledons. Nature of the experiment: Measurements of stomata aperture (width/length) in excised cotyledons. Type of experiment: cell-based, Tomato (S. lycopersicum). The procedure:
[…] assays were carried out as previously described (Puli, M. R. et al., J Exp Bot 63, 1349-1356, 2012). with the following modifications. Cotyledons were excised from M82 or rop9 mutants (10-15 days after sowing in soil) and were transferred immediately to stomatal opening buffer (10 mM MES-KOH, pH 7.0, 50 mM KCl) with or without ABA and treated for 3 h under light (110 to 120 μE m^−2 s^−1). Mock-treated controls were treated with 0.1% vol/vol ethanol. After 3 h, the abaxial epidermis of cotyledons was affixed to a glass slide with Telesis 5 silicone adhesive (Premiere Products) and bright-field images were taken with a Zeiss-LSM 780 NLO confocal microscope. For each biological replicate, width and length of 30 to 40 stomatal apertures were measured using Image J.

Experiment [5] deals with ROP activity in guard cells. Nature of the experiment: Distribution of GFP-ICR1ΔN ROP activity probe in guard cells. Conditions: Arabidopsis guard cells, 10 μM ABA, one hour. Type of experiment: cell-based. On the procedure:
Expression of GFP-ICR1ΔN was induced in 7-days old Arabidopsis seedlings with 5 μM β-estradiol dissolved in 99.5% DMSO. After 24 h of induction plants were treated with control (0.5× Murashige Skoog (MS) medium supplemented with 0.1% ETOH (control) or with 10 μM ABA dissolved in 0.1% ETOH. Analysis of GFP-ICR1ΔN distribution was carried out 1 h after treatments with control or ABA supplemented media using Zeiss LSM 780-NLO confocal microscope by excitation at 488 nm and emission spectrum at 501-546 nm using 40× and 63× water objectives. Image analyses were performed with ZEN 2012 Digital Imaging and Image J.
To follow the regulation of ROP activity in guard cells a fluorescent probe which is specifically expressed in guard cells was generated. The probe consists GFP fused to the […] C-terminal residues of ROP effector ICR1 (between residues 171-344) and was designated GFP-ICRΔN. […] To prevent possible steric hindrance of the ICRΔN moiety by GFP, a flexible linker consisting of 3 repeats of (Gly)4Ser (3×GGGGS) sequence were cloned between the ICRΔN and the GFP moieties. To prevent negative effects that could occur due to long-term expression of a ROP effector, the expression of the probe was induced by estradiol under regulation of the ROP11 promoter. […] The distribution of the probe between the membrane and cytoplasm reflected the degree of ROP activation. […]

On to `CC1=CC(=O)CC(C)(C)[C@@]1(O)/C=C/C(C)=C\C(=O)O` [ABA, Abscisic acid], for which the seed germination result in the experiment on M82 seeds was “significantly inhibited”. Also, the H2DCF signal entry is given as “induced significant enhancement” in experiment [1] (M82 guard cells, 10 μM ABA, 15 min); “significantly reduced the signal” in experiment [1] (rop9-1 and rop9-4 guard cells, 10 μM ABA, 15 min). Besides, the “expression of P5CS1 and RAB18” value in experiment [2] is “induced to a similar extent by ABA in both wild-type and mutant leaves”. For the same compound, the root elongation result in experiment [3] is “inhibited to a similar extent in M82 and the rop9 mutants”. Besides, the “stomata aperture (width/length)” value in experiment [4] (M82, rop9-1 and rop9-4 cells, 10 μM ABA (positive control)) is recorded as “expected closing of stomata were observed”; in experiment [4] (M82 cotyledons, 1 or 10 μM ABA, 3 h under light), “induced stomata closure”. Moreover, the “distribution of the probe between plasma membrane and cytoplasm” value in experiment [5] is listed as “significant shift of the probe from the plasma membrane to the cytoplasm”.

On to `c1ccc2c(c1)[I+]c1ccccc1-2` [DPI, Diphenyleneiodonium chloride], for which the H2DCF signal result in experiment [1] (rop9-1 and rop9-4 guard cells treated with ABA, 5 μM DPI) is “decreased the H2DCF signal”. The “stomata aperture (width/length)” value is listed as “had no effect” in experiment [4] (M82 stomata, 5 μM DPI); “induced opening” in experiment [4] (rop9-1 and rop9-4 stomata, 5 μM DPI).

These data come from US12270041B2, “ROP—deficient plants having high water use efficiency” (RAMOT AT TEL-AVIV UNIVERSITY LTD., priority 2019, dated 2025).
